Measurements: US8283373B2, “Inhibitors of cytosolic phospholipase A2” (Pfizer Inc., priority 2005, dated 2012)
“Also recorded” adds a separate entry of the source.

Experiments:
[1] = tested on: primary dopaminergic neurons; assay: MPP+ exposure in dopaminergic neurons; type: cell-based, rat; conditions: 10 μM MPP+ 60 minutes, control 100, MPP+ alone 56.6
Experimental: Primary dopaminergic neurons were isolated from E15 rat embryos as described in Pong K., et al., (1997) J. Neurochem. 69 986-994. Briefly, the ventral mesencephalon was isolated and tissue was pooled in ice-cold phosphate buffer saline (PBS) without Ca^2+ and Mg^2+. The tissue was transferred to an enzymatic dissociation media containing 20 IU/ml papain in Earle's balanced salt solution (Worthington Biochemical, Freehold, N.J.) and incubated for 30 minutes at 37° C. After enzymatic dissociation, the papain solution was aspirated and the tissue mechanically triturated with a fire-polished Pasteur pipette in complete media [Neurobasal Medium with B-27 supplement (Gibco, Grand Island, N.Y.), penicillin/streptomycin, aphidicolin, glutamate] containing 2,000 IU/ml DNase and 10 mg/ml ovomucoid protease inhibitor. Single-cell suspensions in complete media were plated on pre-coated poly-L-ornithine/laminin 24-well plates (Becton-Dickinson, Bedford, Mass.) at a density of 5.0×10^5 cells/well. Cells were maintained for one week prior to experimentation.
Cultures were exposed to 10 μM MPP^+ for 60 minutes. After the exposure, fresh media was exchanged and fresh compound was added. Dopaminergic neuron viability was determined 24 hours later by measuring ^3H-dopamine uptake as described in Pong et al., 1997, supra.

[2] = target: T1, cPLA2α (Homo sapiens, UniProt P47712); assay: GLU Micelle Assay; type: biochemical
T1 sequence (P47712 1-749): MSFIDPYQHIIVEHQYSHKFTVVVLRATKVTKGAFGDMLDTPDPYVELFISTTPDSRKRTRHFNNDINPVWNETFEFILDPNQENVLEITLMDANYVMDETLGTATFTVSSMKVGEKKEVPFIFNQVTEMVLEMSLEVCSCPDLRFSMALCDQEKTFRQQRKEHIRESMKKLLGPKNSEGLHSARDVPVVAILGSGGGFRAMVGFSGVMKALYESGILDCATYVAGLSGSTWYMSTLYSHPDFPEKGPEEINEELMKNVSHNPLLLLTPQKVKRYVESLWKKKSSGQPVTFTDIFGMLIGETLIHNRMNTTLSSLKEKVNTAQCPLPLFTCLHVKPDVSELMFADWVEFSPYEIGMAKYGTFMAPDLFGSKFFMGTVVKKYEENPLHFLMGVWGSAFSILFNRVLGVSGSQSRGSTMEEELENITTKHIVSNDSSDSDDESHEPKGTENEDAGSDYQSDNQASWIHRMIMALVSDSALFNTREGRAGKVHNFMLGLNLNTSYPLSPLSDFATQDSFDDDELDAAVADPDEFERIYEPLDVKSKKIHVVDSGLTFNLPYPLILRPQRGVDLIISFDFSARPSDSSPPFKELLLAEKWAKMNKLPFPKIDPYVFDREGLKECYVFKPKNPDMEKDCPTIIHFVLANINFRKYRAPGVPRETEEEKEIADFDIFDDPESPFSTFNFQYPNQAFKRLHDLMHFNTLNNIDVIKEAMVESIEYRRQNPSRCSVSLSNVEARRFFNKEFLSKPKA
How it was run: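 Fluorogenic micelle assay with 1 μg/ml cPLA2α and 90 μM GLU substrate plus 120 μM DTPC in 940 μM Triton X-100, 50 mM Hepes pH 7.4, 0.3 mM EDTA, 1 mM CaCl2, 300 mM KCl. Fluorescence (ex 355/em 460) was read every 4 min for 84 min. Percent inhibition came from slopes relative to positive and negative controls.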

[3] = tested on: carrageenan paw edema; assay: Carrageenan paw edema assay; type: in vivo; conditions: oral
Experimental: The carrageenan paw edema assay is an acute model of inflammation that is particularly useful for in vivo assessment of compounds that effect the production of prostaglandins. In particular, NSAIDs inhibit edema in a characteristic dose response fashion in this model, and the activity of NSAIDs in this model correlates well with the activity observed in man (See Mukherjee A, et al., Inflamm Res. 1996; 45:531-540). Therefore, the compound of Example 10 was tested in the carrageenan paw edema model.

[4] = tested on: collagen-induced arthritis; assay: Collagen-induced arthritis (CIA) model; type: in vivo, mouse
Experimental: The compound of Example 10 was tested in the mouse CIA model, which has many immunologic and pathologic similarities to human rheumatoid arthritis (See Trentham, D. E., et al., supra). Arthritis was induced in DBA/1LacJ mice by intradermal injection of an emulsion of bovine type II collagen and CFA followed by a boost with an intradermal injection of bovine type II collagen emulsified in incomplete Freund's Adjuvant 21 days after the initial immunization. […] At that point animals were randomly assigned to treatment groups and administered the compound of Example 10 (100 mg/kg) PO BID for 28 days. Control groups received celecoxib, vehicle alone or were left untreated. All animals were scored daily in a blinded fashion for visual signs of disease symptoms.
The mean scores of the group treated with the compound of Example 10 were compared to the vehicle-control group values using the Student's t-test.
After completion of the experiments, paws were processed for histology. Two board certified veterinary pathologist evaluated the slides in a blinded fashion. Each paw was assigned a numerical score for both arthritis severity and the general number of joints affected.

SMILES	dopaminergic neuron viability (3H-dopamine uptake), Avg. ([1]; 0.3 μM)	dopaminergic neuron viability (3H-dopamine uptake), Avg. ([1]; 1 μM)	dopaminergic neuron viability (3H-dopamine uptake), Avg. ([1]; 3 μM)	dopaminergic neuron viability (3H-dopamine uptake), Avg. ([1]; 10 μM)	IC50 [2] [nM]	Paw edema ([3]; 2 hours before carrageenan, doses as low as 3 mg/kg)	ED50 ([3]; based on a maximal inhibition of 50%, read-out: approximate ED50 of paw edema inhibition) [mg/kg]	group mean severity scores (paw histology) ([4]; 100 mg/kg BID)	percentage of unaffected (grade 0) paws (histology) ([4]; 100 mg/kg BID)	number of animals without disease symptoms ([4]; 100 mg/kg PO BID)	disease severity scores vs vehicle control ([4]; 100 mg/kg PO BID for 28 days, semi-therapeutic, from day 10)	average severity grade (histology), pathologist 1 ([4]; 100 mg/kg, vehicle 2.1)	average severity grade (histology), pathologist 2 ([4]; 100 mg/kg, vehicle 3.0)
Cc1cccc(C)c1CS(=O)(=O)NCCc1c(CCCc2ccc(C(=O)O)cc2)c2cc(Cl)ccc2n1C(c1ccccc1)c1ccccc1 [Compound A, 4-{3-[1-benzhydryl-5-chloro-2-(2-{[(2,6-dimethylbenzyl)sulfonyl]amino}ethyl)-1H-indol-3-yl]propyl}benzoic acid]	76.9	83.4	78.8	81.1	–	–	–	–	–	–	–	–	–
O=C(O)c1ccc(CCCc2c(CCNS(=O)(=O)Cc3ccccc3C(F)(F)F)n(C(c3ccccc3)c3ccccc3)c3ccc(Cl)cc23)cc1 [Example 10, 4-(3-{5-chloro-1-(diphenylmethyl)-2-[2-({[2-(trifluoromethyl)benzyl]sulfonyl}amino)ethyl]-1H-indol-3-yl}propyl)benzoic acid]	–	–	–	–	9	statistically significantly decreased; also recorded: significantly inhibited edema	~7.5	lowest group mean severity scores	highest percentage of unaffected (grade 0) paws	greatest	statistically significant decrease; also recorded: significant reduction of disease	0.9	2.1
